How the values were obtained:
[1] = DRUGMATRIX: Phosphodiesterase PDE3 enzyme inhibition (substrate: [3H]cAMP + cAMP); type: tissue-based, Homo sapiens; conditions: platelet; Not Active = under 50% inhibition at 10 µM
Cytochrome P450 2C9 = Cytochrome P450 2C9 (Homo sapiens, UniProt P11712); conditions: bti-tn-5b1-4; further: in other assays of this panel Not Active means under 50% inhibition at 10 µM
Cytochrome P450 2A6 = biological target: T1, Cytochrome P450 2A6 (Homo sapiens, UniProt P11509); conditions: bti-tn-5b1-4; further: in other assays of this panel Not Active means under 50% inhibition at 10 µM
T1 sequence (P11509 whole entry): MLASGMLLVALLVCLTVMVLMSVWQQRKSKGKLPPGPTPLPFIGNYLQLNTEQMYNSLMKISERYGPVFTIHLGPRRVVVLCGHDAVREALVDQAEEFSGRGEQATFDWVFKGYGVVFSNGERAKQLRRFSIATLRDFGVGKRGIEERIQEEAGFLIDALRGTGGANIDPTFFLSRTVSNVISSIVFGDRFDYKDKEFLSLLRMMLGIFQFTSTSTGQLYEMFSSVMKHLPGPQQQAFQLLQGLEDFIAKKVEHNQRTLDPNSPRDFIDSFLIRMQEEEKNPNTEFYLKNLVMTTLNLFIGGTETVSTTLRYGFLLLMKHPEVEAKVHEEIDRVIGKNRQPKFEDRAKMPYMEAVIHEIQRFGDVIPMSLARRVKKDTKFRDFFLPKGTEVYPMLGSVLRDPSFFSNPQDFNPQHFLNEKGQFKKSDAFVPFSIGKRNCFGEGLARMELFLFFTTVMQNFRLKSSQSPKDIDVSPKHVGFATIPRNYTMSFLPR

Melanocortin receptor 5 = Melanocortin receptor 5 (Homo sapiens, UniProt P33032); type: cell membranes, HEK293, Membrane; conditions: hek293; further: in other assays of this panel Not Active means under 50% inhibition at 10 µM
Chain of Melanocortin receptor 5 (P33032 whole entry): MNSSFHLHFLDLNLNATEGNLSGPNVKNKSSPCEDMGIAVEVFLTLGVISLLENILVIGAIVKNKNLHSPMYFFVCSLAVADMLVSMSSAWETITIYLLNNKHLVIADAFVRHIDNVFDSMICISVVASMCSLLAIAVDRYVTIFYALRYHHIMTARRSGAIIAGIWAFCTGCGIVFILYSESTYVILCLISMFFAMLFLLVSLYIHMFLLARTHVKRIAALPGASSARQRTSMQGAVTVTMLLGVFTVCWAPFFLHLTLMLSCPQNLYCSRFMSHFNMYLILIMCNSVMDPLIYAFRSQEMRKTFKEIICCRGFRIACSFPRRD

[2] = biological target: T2, Nitric oxide synthase, inducible (Mus musculus, UniProt P29477); design: species or system Escherichia coli;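 further: inhibition of iNOS enzyme activity measured with L-arginine as substrate; in other assays of this panel Not Active means under 50% inhibition at 10 µM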
T2 sequence (P29477 whole entry): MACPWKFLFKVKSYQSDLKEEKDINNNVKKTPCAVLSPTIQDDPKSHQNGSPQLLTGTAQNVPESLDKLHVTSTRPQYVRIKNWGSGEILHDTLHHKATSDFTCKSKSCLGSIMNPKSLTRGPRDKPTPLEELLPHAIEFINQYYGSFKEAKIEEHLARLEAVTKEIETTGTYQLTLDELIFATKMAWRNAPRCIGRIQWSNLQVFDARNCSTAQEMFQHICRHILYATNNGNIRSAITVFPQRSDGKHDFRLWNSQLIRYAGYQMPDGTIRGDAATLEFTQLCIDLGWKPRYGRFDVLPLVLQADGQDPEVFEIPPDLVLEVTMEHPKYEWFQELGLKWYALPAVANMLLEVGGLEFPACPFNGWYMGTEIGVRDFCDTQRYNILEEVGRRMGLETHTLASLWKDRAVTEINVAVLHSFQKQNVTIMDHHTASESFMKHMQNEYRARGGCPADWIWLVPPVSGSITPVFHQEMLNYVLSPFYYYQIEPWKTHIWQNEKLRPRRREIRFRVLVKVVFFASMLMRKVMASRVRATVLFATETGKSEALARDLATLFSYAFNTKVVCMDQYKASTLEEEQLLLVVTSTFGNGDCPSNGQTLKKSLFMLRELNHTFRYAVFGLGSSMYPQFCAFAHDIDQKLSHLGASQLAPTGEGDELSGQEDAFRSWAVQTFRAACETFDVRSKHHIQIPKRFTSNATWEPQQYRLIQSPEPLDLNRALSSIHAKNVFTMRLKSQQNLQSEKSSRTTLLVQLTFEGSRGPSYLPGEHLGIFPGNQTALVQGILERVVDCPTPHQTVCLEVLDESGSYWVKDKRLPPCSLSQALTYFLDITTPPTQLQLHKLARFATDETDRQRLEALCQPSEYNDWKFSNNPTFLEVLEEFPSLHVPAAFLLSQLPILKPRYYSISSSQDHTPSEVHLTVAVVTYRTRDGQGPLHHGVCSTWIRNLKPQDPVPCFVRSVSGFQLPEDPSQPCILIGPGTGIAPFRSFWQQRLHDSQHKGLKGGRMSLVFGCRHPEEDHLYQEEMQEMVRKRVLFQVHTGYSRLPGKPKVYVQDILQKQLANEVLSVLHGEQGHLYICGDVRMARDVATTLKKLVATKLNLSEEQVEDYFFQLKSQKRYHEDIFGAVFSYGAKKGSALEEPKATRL

[3] = biological target: T3, C-X-C chemokine receptor type 1 (Homo sapiens, UniProt P25024); further: in other assays of this panel Not Active means under 50% inhibition at 10 µM
T3 sequence (P25024 whole entry): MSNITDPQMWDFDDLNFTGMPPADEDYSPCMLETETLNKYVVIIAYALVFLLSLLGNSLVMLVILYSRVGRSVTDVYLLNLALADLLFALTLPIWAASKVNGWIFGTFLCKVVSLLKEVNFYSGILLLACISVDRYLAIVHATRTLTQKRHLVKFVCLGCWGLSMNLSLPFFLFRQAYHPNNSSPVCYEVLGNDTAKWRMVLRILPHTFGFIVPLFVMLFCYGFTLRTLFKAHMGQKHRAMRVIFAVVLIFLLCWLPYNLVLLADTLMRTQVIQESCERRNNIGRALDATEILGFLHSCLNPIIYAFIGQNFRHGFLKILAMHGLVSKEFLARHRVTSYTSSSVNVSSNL

[4] = biological target: T4, Polyunsaturated fatty acid lipoxygenase ALOX15 (Oryctolagus cuniculus, UniProt P12530); assay: biochemical; type: tissue-based, Reticulocytes; conditions: reticulocytes
T4 sequence (P12530 whole entry): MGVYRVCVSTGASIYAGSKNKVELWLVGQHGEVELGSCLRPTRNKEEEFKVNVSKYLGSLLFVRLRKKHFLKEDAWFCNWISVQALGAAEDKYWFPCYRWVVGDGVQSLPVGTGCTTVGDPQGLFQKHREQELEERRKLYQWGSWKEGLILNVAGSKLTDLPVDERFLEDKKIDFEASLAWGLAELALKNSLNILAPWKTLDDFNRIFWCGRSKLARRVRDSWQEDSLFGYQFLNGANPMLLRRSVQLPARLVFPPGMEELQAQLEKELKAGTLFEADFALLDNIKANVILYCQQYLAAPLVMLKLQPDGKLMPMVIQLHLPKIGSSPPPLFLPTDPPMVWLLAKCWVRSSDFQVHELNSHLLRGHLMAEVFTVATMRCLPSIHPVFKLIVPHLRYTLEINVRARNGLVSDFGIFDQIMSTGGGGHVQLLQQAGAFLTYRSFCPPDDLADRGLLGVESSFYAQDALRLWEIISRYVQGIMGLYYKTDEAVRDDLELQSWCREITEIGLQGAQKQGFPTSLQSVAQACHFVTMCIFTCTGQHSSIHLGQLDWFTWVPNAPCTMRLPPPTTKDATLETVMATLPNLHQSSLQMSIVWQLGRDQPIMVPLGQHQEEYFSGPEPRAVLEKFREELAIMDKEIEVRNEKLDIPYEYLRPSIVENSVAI

Chain of Cytochrome P450 2C9 (P11712 whole entry): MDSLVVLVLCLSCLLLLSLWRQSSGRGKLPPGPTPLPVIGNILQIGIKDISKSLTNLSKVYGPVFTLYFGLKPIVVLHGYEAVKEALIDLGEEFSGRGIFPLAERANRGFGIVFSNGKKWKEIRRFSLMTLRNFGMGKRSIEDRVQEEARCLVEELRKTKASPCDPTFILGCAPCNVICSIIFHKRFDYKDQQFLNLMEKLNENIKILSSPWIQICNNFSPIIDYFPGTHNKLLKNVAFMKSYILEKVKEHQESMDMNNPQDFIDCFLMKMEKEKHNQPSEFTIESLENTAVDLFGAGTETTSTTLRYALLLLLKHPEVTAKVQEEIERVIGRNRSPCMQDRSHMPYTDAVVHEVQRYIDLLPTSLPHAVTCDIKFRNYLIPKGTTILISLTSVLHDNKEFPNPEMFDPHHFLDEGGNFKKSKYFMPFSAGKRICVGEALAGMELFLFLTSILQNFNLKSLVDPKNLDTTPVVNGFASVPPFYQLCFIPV

C[C@]12CCC(=O)C=C1CC[C@@H]1[C@@H]2CC[C@@]2(C)[C@H]1CC[C@]2(C)O [METHYLTESTOSTERONE]
Not Active: IC50 [1] | Ki [1] | IC50 (Cytochrome P450 2C9) | Ki (Cytochrome P450 2C9) | IC50 (Cytochrome P450 2A6) | Ki (Cytochrome P450 2A6) | IC50 (Melanocortin receptor 5) | IC50 [2] | IC50 [3] | IC50 [4]

Cc1ccccc1N1C(=O)c2cc(S(N)(=O)=O)c(Cl)cc2NC1C (configuration not stated) [METOLAZONE]
Not Active: IC50 [1] | Ki [1] | IC50 (Cytochrome P450 2C9) | Ki (Cytochrome P450 2C9) | IC50 (Cytochrome P450 2A6) | Ki (Cytochrome P450 2A6) | IC50 (Melanocortin receptor 5) | IC50 [2] | IC50 [3] | IC50 [4]

COCCc1ccc(OCC(O)CNC(C)C)cc1 (configuration not stated) [METOPROLOL]
Not Active: IC50 [1] | Ki [1] | IC50 (Cytochrome P450 2C9) | Ki (Cytochrome P450 2C9) | IC50 (Cytochrome P450 2A6) | Ki (Cytochrome P450 2A6) | IC50 (Melanocortin receptor 5) | IC50 [2] | IC50 [3] | IC50 [4]

CCn1cc(C(=O)O)c(=O)c2cc(F)c(N3CCNCC3)cc21 [NORFLOXACIN]
Not Active: IC50 [1] | Ki [1] | IC50 (Cytochrome P450 2C9) | Ki (Cytochrome P450 2C9) | IC50 (Cytochrome P450 2A6) | Ki (Cytochrome P450 2A6) | IC50 (Melanocortin receptor 5) | IC50 [2] | IC50 [3] | IC50 [4]

NC1=NC(=O)C(c2ccccc2)O1 (configuration not stated) [PEMOLINE]
Not Active: IC50 [1] | Ki [1] | IC50 (Cytochrome P450 2C9) | Ki (Cytochrome P450 2C9) | IC50 (Cytochrome P450 2A6) | Ki (Cytochrome P450 2A6) | IC50 (Melanocortin receptor 5) | IC50 [2] | IC50 [3] | IC50 [4]

Nc1nc2c(ncn2CCC(CO)CO)c(=O)[nH]1 [PENCICLOVIR]
Not Active: IC50 [1] | Ki [1] | IC50 (Cytochrome P450 2C9) | Ki (Cytochrome P450 2C9) | IC50 (Cytochrome P450 2A6) | Ki (Cytochrome P450 2A6) | IC50 (Melanocortin receptor 5) | IC50 [2] | IC50 [3] | IC50 [4]

C=C(C)C1(O)OC(=O)C=C1OC (configuration not stated) [PENICILLIC ACID]
Not Active: IC50 [1] | Ki [1] | IC50 (Cytochrome P450 2C9) | Ki (Cytochrome P450 2C9) | IC50 (Cytochrome P450 2A6) | Ki (Cytochrome P450 2A6) | Ki (Melanocortin receptor 5) | IC50 [2] | IC50 [3] | IC50 [4]

CCCN1C[C@H](CSC)C[C@@H]2c3cccc4[nH]cc(c34)C[C@H]21 [PERGOLIDE]
Not Active: IC50 [1] | Ki [1] | IC50 (Cytochrome P450 2C9) | Ki (Cytochrome P450 2C9) | IC50 (Cytochrome P450 2A6) | Ki (Cytochrome P450 2A6) | IC50 (Melanocortin receptor 5) | IC50 [2] | IC50 [3] | IC50 [4]

C1CCC(C(CC2CCCCN2)C2CCCCC2)CC1 (configuration not stated) [PERHEXILINE]
Not Active: IC50 [1] | Ki [1] | IC50 (Cytochrome P450 2C9) | Ki (Cytochrome P450 2C9) | IC50 (Cytochrome P450 2A6) | Ki (Cytochrome P450 2A6) | IC50 (Melanocortin receptor 5) | IC50 [2] | IC50 [3] | IC50 [4]

CCOc1ccc(NC(C)=O)cc1 [PHENACETIN]
Not Active: IC50 [1] | Ki [1] | IC50 (Cytochrome P450 2C9) | Ki (Cytochrome P450 2C9) | IC50 (Cytochrome P450 2A6) | Ki (Cytochrome P450 2A6) | IC50 (Melanocortin receptor 5) | IC50 [2] | IC50 [3] | IC50 [4]

Cc1ccc(N(CC2=NCCN2)c2cccc(O)c2)cc1 [PHENTOLAMINE]
Not Active: IC50 [1] | Ki [1] | IC50 (Cytochrome P450 2C9) | Ki (Cytochrome P450 2C9) | IC50 (Cytochrome P450 2A6) | Ki (Cytochrome P450 2A6) | IC50 (Melanocortin receptor 5) | IC50 [2] | IC50 [3] | IC50 [4]

CNNCc1ccc(C(=O)NC(C)C)cc1 [PROCARBAZINE]
Not Active: IC50 [1] | Ki [1] | IC50 (Cytochrome P450 2C9) | Ki (Cytochrome P450 2C9) | IC50 (Cytochrome P450 2A6) | Ki (Cytochrome P450 2A6) | IC50 (Melanocortin receptor 5) | IC50 [2] | IC50 [3] | IC50 [4]

CC(O)CO (configuration not stated) [PROPYLENE GLYCOL]
Not Active: IC50 [1] | Ki [1] | IC50 (Cytochrome P450 2C9) | Ki (Cytochrome P450 2C9) | IC50 (Cytochrome P450 2A6) | Ki (Cytochrome P450 2A6) | IC50 (Melanocortin receptor 5) | IC50 [2] | IC50 [3] | IC50 [4]

CADMIUM ACETATE
Not Active: IC50 [1] | Ki [1] | IC50 (Cytochrome P450 2C9) | Ki (Cytochrome P450 2C9) | IC50 (Cytochrome P450 2A6) | Ki (Cytochrome P450 2A6) | IC50 (Melanocortin receptor 5) | Ki (Melanocortin receptor 5) | IC50 [2] | Ki [2] | IC50 [3] | Ki [3] | IC50 [4] | Ki [4]

LEAD (II) ACETATE
Not Active: IC50 [1] | Ki [1] | IC50 (Cytochrome P450 2C9) | Ki (Cytochrome P450 2C9) | IC50 (Cytochrome P450 2A6) | Ki (Cytochrome P450 2A6) | IC50 (Melanocortin receptor 5) | Ki (Melanocortin receptor 5) | IC50 [2] | Ki [2] | IC50 [3] | Ki [3] | IC50 [4] | Ki [4]

LIPOPOLYSACCHARIDE E. COLI O55:B5
Not Active: IC50 [1] | Ki [1] | IC50 (Cytochrome P450 2C9) | Ki (Cytochrome P450 2C9) | IC50 (Cytochrome P450 2A6) | Ki (Cytochrome P450 2A6) | IC50 (Melanocortin receptor 5) | Ki (Melanocortin receptor 5) | IC50 [2] | Ki [2] | IC50 [3] | Ki [3] | IC50 [4] | Ki [4]

Source: ChEMBL document CHEMBL1909046, “DrugMatrix in vitro pharmacology data”
